Patent US20120009280A1, “METHOD OF REDUCING THE RATE OF DEGRADATION OF A BIOLOGICAL MATERIAL” (Bio-Energy Ingredients Limited, priority 2009, published 2012)
Several values for one entry are separate records, joined by “and”; a condition that tells them apart may be missing. Identical values can stand only once.

Legend:
Assay type in all cases: cell-based
[1] = tested on: Clostridium difficile ATCC 43255; experiment: Antimicrobial efficacy test of saturated aqueous solutions; settings: for Corrected count cfu/mL: saturated aqueous solution, inoculum (t = 0) 8.20 × 10^7, replicates A, B; for reduction: saturated solution 8.35 g/L (0.037 M)
Method: (§1) Escherichia coli NCIMB 8545 and Salmonella abony NCTC 6017 were subcultured onto Tryptone Soya Agar (TSA) and the plates incubated at 30-35° C. for approximately 24 hours. Clostridium difficile ATCC 43255 was subcultured onto Fastidious Anaerobe Agar (FAA)+5% defibrinated horse blood and the plates incubated at 30-35° C. for approximately 48 hours. After this time, surface growth was harvested and directly suspended into sterile distilled water and standardised to give 30-45% light transmission at 520 nm on a Jenway 6105 Spectrophotometer—an approximate yield of 2×10^8 cfu/ml. […] […]. At the same time, 1 ml of bacterial suspension was removed from the original stock suspensions and placed into 9 ml PBS to perform the initial (Time 0) count. The inoculated suspensions were then shaken for ten minutes at room temperature. After 1 and 10 minutes, 1 ml samples of the bacterial suspensions were removed from the test containers and placed into 9 ml PBS. For each diluted sample, further serial ten-fold dilutions in PBS down to 10^−5 were made and then used to prepare duplicate 1 ml pour plate counts in TSA. Pour plates were also prepared from the neat (undiluted) sample. For Clostridium difficile, 0.1 ml spread plates were prepared on FAA instead of 1 ml pour plates due to the presence of blood in the agar. The plates were incubated at 30-35° C. for approximately 24 hours (48 hours for Clostridium difficile).
(§2) Following incubation, the plates were counted. Optimally, plates with counts of 30-300 colonies were used to calculate the counts at each sampling time.

[2] = tested on: Escherichia coli NCIMB 8545; experiment: as above; settings: for Corrected count cfu/mL: saturated aqueous solution, inoculum (t = 0) 6.95 × 10^8, replicates A, B; for colonies on plates: saturated solution
Method: Escherichia coli NCIMB 8545 was subcultured onto TSA and the plates incubated at 30-35° C. for approximately 24 hours. After this time, surface growth was harvested and directly suspended into sterile distilled water and standardised to give 30-45% light transmission at 520 nm on a Jenway 6105 Spectrophotometer—an approximate yield of 2 (10^8) cfu/ml. A 0.1 ml aliquot of this suspension was inoculated into 9.9 ml of CaOH solution. This was performed in duplicate. At the same time, 1 ml of bacterial suspension was removed from the original stock suspension and placed into 9 ml PBS to perform the initial (Time 0) count. The inoculated calcium hydroxide suspensions were then shaken for one hour at room temperature. After this time 1 ml samples of the bacterial suspension were removed from the test containers and placed into 9 ml PBS. For each diluted sample, further serial ten-fold dilutions in PBS down to 10^−5 were made and then used to prepare duplicate 1 ml pour plate counts in TSA. Pour plates were also prepared from the neat (undiluted) sample. The plates were incubated at 30-35° C. for approximately 24 hours. Following incubation, the plates were counted. Optimally, plates with counts of 30-300 colonies were used to calculate the counts at each sampling time.
Escherichia coli NCIMB 8545 was subcultured onto TSA and the plates incubated at 30-35° C. for approximately 24 hours. After this time, surface growth was harvested and directly suspended into sterile distilled water and standardised to give 30-45% light transmission at 520 nm on a Jenway 6105 Spectrophotometer—an approximate yield of 2×10^8 cfu/ml. […] […]. At the same time, 1 ml of bacterial suspension was removed from the original stock suspension and placed into 9 ml PBS to perform the initial (Time 0) count. The inoculated suspensions were then shaken for one hour at room temperature. After both 10 minutes and one hour, 1 ml samples of the bacterial suspension were removed from the test containers and placed into 9 ml PBS. For each diluted sample, further serial ten-fold dilutions in PBS down to 10^−6 were made and then used to prepare duplicate 1 ml pour plate counts in TSA. Pour plates were also prepared from the neat (undiluted) sample. The plates were incubated at 30-35° C. for approximately 24 hours.
as §2, §1

[3] = tested on: Escherichia coli; experiment: Spiking test of agar plates with Escherichia coli (kill versus inhibition); settings: for Individual count / Mean count: spiking test
Method: (§3) When performing total viable counts (TVCs), the agar plates (when they were molten and containing 1 ml of the test sample dilution) were spiked with bacterial organisms (E. Coli and P. aeruginosa) of a known concentration. If the organisms grew, this would indicate that the conditions in the agar plate had not inhibited them. A control with no sample was run at the same time. […]
(§4) The plates were incubated at 30-35° C. for approximately 24 hours after which time the bacterial colonies were counted.
. […] This was performed in duplicate.

[4] = tested on: total micro-organism; experiment: Total microbial (plate) count of spent brewer's / wet distiller's grains stored at ambient temperature; settings: dose 10% w/w; distiller's grains not de-watered, Examples 16-18
[5] = tested on: Pseudomonas aeruginosa; experiment: Spiking test of agar plates with Pseudomonas aeruginosa (kill versus inhibition); settings: treated sample with 5% (w/w) calcium oxide, Day 9, all sample dilutions
Method: as §3, §4

[6] = tested on: Salmonella abony NCTC 6017; experiment: Antimicrobial efficacy test of saturated aqueous solutions
Method: At the same time, 1 ml of bacterial suspension was removed from the original stock suspensions and placed into 9 ml PBS to perform the initial (Time 0) count. The inoculated suspensions were then shaken for ten minutes at room temperature. After 1 and 10 minutes, 1 ml samples of the bacterial suspensions were removed from the test containers and placed into 9 ml PBS. For each diluted sample, further serial ten-fold dilutions in PBS down to 10^−5 were made and then used to prepare duplicate 1 ml pour plate counts in TSA. Pour plates were also prepared from the neat (undiluted) sample. For Clostridium difficile, 0.1 ml spread plates were prepared on FAA instead of 1 ml pour plates due to the presence of blood in the agar. The plates were incubated at 30-35° C. for approximately 24 hours (48 hours for Clostridium difficile).
as §2

[7] = 10 minutes incubation, Example 13
[8] = 10 minutes incubation, time 0 count 4.00×10^6 cfu/ml, Example 12
[9] = one hour incubation, time 0 count 4.00×10^6 cfu/ml, Example 12
[10] = E. coli NCIMB 8545, dilution −1 in PBS
[11] = E. coli NCIMB 8545, dilution −2 in PBS
[12] = E. coli NCIMB 8545, dilution −3 in PBS
[13] = E. coli NCIMB 8545, dilution −4 in PBS
[14] = E. coli NCIMB 8545, dilution −5 in PBS
[15] = E. coli NCIMB 8545, saturated solution Neat (control mean 215)

[Ca+2].[O-]CC(O)CO.[O-]CC(O)CO [calcium diglyceroxide]
Corrected count cfu/mL ([1]; one minute treatment): 1.30 × 10^3 cfu/mL and 7.00 × 10^2 cfu/mL
Corrected count cfu/mL ([1]; ten minute treatment): 85 cfu/mL and 50 cfu/mL
reduction ([1]; one minute treatment): ≥ 4 log10
reduction ([1]; ten minute treatment): 6 log10
Corrected count cfu/mL ([2]; one minute treatment): 0 cfu/mL and 1 cfu/mL
reduction ([2]; saturated solution 8.35 g/L (0.037 M), one minute treatment): ≥ 4 log10
colonies on plates [2, 7]: No colonies
colonies on plates [2, 8]: No colonies
colonies on plates [2, 9]: No colonies

[O]=[Ca] [calcium oxide]
inhibitory effect on test organism in spiking test ([3]; treated sample with 5% (w/w) calcium oxide, Day 9, all sample dilutions): did not demonstrate an inhibitory effect
preservation time with total microbial counts <100 cfu/g [4]: ≧9 weeks
preservation time with total microbial counts <1000 cfu/g [4]: ≧9 weeks
inhibitory effect on test organism in spiking test [5]: did not demonstrate an inhibitory effect

[Ca+2].[OH-].[OH-] [calcium hydroxide]
Corrected count cfu/mL ([6]; saturated aqueous solution, one minute treatment, inoculum (t = 0) 7.00 × 10^8, replicates A, B): 59 cfu/mL and 11 cfu/mL
colonies on plates ([6]; saturated solution, 10 minutes incubation): No colonies
Corrected count cfu/mL ([1]; one minute treatment): 8.50 × 10^2 cfu/mL and 9.50 × 10^2 cfu/mL
Corrected count cfu/mL ([1]; ten minute treatment): 1.10 × 10^2 cfu/mL and 1.20 × 10^2 cfu/mL
Individual count [3, 10]: 197 and 209
Mean count [3, 10]: 203
Individual count [3, 11]: 194 and 203
Mean count [3, 11]: 199
Individual count [3, 12]: 192 and 240
Mean count [3, 12]: 216
Individual count [3, 13]: 194 and 196
Mean count [3, 13]: 195
Individual count [3, 14]: 235 and 194
Mean count [3, 14]: 215
Individual count [3, 15]: 216 and 191
Mean count [3, 15]: 205
Corrected count cfu/mL ([2]; one minute treatment): 1.35 × 10^6 cfu/mL and 1.23 × 10^5 cfu/mL
colonies on plates [2, 7]: No colonies
colonies on plates [2, 8]: No colonies
colonies on plates [2, 9]: No colonies
